Measured values taken from PMC5140066, “Electrophysiological Characteristics of Human iPSC-Derived Cardiomyocytes for the Assessment of Drug-Induced Proarrhythmic Potential” (PLoS ONE, 2016).
Blank lines part the entries; values can stand above or below the molecule they belong to.

Experiments:
[1] = test system: human induced pluripotent stem cell-derived cardiomyocytes (hiPSC-CMs); test: Field potential recording of hiPSC-CM sheets on multi-electrode array (MEA); type: cell-based; settings: for Effect on FPD: cumulative application; for Use (rate) dependence of FPD prolongation: from FPD-ISI plots
Description: The cells were thawed and suspended in iCell Cardiomyocytes Plating Medium (Cellular Dynamics International), then plated (approximately 2 × 10^6 cells/well) in 6-well tissue-culture plates coated with 0.1% gelatin. After two days of incubation at 37°C under an atmosphere of 5% CO2, the plating medium was replaced with iCell Cardiomyocytes Maintenance Medium (Cellular Dynamics International); this medium was used as the culture medium throughout the experiments and was replaced every 1 to 3 days. The cells were cultured for 7 to 14 days in a 5% CO2 incubator at 37°C and then re-plated onto MEA probes (MED-P515A or MED-PG515A; Alpha Med Scientific, Osaka, Japan).
The recording areas of the MEA probes were coated with fibronectin (Becton Dickinson, Franklin Lakes, NJ, USA; Invitrogen, Carlsbad, CA, USA; Corning, Corning, NY, USA). Fibronectin was dissolved in distilled water or Dulbecco's phosphate-buffered saline (PBS) [−] to give 50 μg/mL, the recording areas were covered with 2 μL fibronectin solution, and then the MEA probes were incubated at 37°C for at least 1 h. […] After discarding the fibronectin solution from the MEA probes without complete drying, the cell suspension at a density of 3.0 × 10^4 cells in a 2 μL droplet was re-plated onto the fibronectin-coated area of each MEA probe and incubated for 1 to 3 h in a 5% CO2 incubator at 37°C. Each well of the MEA probes was then filled with maintenance medium at a volume of 1 mL/well. The medium was replaced every 1 to 3 days thereafter, and the cells were cultured for 5 to 14 days to obtain high density cardiomyocyte-sheets with spontaneous and synchronous electrical activities.
Prior to recording FPs, the cardiomyocyte-sheets were equilibrated for at least 30 min in a 5% CO2 incubator at 37°C in fresh culture medium. The MEA probes were then transferred to a FP measurement apparatus (MED64 system; Alpha Med Scientific, Osaka, Japan) and covered with a lid through which humidified gas containing 5% CO2 was provided. […] Analogue FP signals from the spontaneously beating cardiomyocyte-sheets were acquired through a 0.1-Hz high-pass filter and a 5-kHz low-pass filter, and digitized at 20 kHz using the MED64 system. […] Compound stock solutions were prepared using DMSO at 1000-fold the target concentrations of the test compounds. The stock solutions were diluted with the maintenance medium to obtain the appropriate compound concentrations, then 1/10th to 1/50th the volume of the medium in the wells was exchanged with an equal volume of the compound-containing medium. The compounds were applied in a cumulative manner to the wells. The concentration of DMSO was 0.5–0.6% at the highest concentration of the test compounds. […] FPD (ms) and ISI (ms) were analyzed using Mobius QT software designed by WitWerx (Santa Cruz, CA, USA) (Fig 1b).
Baseline FP waveforms that met the following criteria were used for analysis. […] In the FP signals, EAD and TA were defined as slow negative spikes and a sharp deflection with an amplitude ≥ ± 100 μV, respectively (Fig 1c). EAD, TA or both usually appear during or after the second positive deflection. ISI, FPD and FPDcF were not calculated for concentrations in which EAD or TA were observed.
As previously mentioned, total 96 data equally from 4 facilities each were used for the analysis (24 data per facility). […] The root mean squared prediction error (RMSE) was used to show the level of accuracy of the equation predicted for the observed data (Fig 2). With categorical data analysis of FPD, inter-facilities differences were investigated with Kruskal-Wallis test (Fig 4).

[2] = test system: guinea pig ventricular myocytes; set-up: method as in PMID 9709405; settings: independent of the underlying pacing rate; cited from earlier work
[3] = test system: dogs with subacute myocardial infarction; set-up: method as in PMID 11005588; settings: cited from earlier work
[4] = test system: human ventricular myocytes; set-up: method as in PMID 9709405; settings: independent of the underlying pacing rate; cited from earlier work
[5] = cisapride 3 nM, all 4 facilities, n=24
[6] = cisapride 3 nM, facility A, n=6
[7] = cisapride 3 nM, facility B, n=6
[8] = cisapride 3 nM, facility C, n=6
[9] = cisapride 3 nM, facility D, n=6
[10] = cisapride 10 nM, all 4 facilities, n=24
[11] = cisapride 10 nM, all 4 facilities, n=24, listed as cisapride
[12] = cisapride 10 nM, facility A, n=6
[13] = cisapride 10 nM, facility B, n=6
[14] = cisapride 10 nM, facility C, n=6
[15] = cisapride 10 nM, facility D, n=6
[16] = cisapride 30 nM, all 4 facilities, n=24
[17] = cisapride 30 nM, facility A, n=6
[18] = cisapride 30 nM, facility B, n=6
[19] = cisapride 30 nM, facility C, n=6
[20] = cisapride 30 nM, facility D, n=6
[21] = cisapride 100 nM, all 4 facilities, n=24
[22] = cisapride 100 nM, facility D, n=6

EADs and/or TAs ([1]; at concentrations up to 30 μM): not observed
SMILES: CCS(=O)(=O)N(C)[C@H]1c2cc(C#N)ccc2OC(C)(C)[C@@H]1O (racemic) [Chromanol 293B]
Slope factor of FPD-ISI regression, % change ([1]; chromanol 293B 1 μM): 0.9162 | Slope factor of FPD-ISI regression, % change ([1]; chromanol 293B 30 μM): 0.9066 | Slope factor of FPD-ISI regression, absolute FPD (ms) ([1]; chromanol 293B 30 μM (sham 0.1674)): 0.4182 | Effect on FPD [1]: prolonged FPD in a concentration-dependent manner | Use (rate) dependence of FPD prolongation [1]: prolonged FPD in a rate-independent manner | Prolongation of APD90 [2]: about 30% | Effect on effective refractory periods [3]: prolonged effective refractory periods in a rate-dependent manner | Prolongation of APD90 [4]: about 30%

Preparations in absolute FPD category > 450 ms [1, 5]: 21%(5/24) | Preparations in absolute FPD category > 480 ms [1, 5]: 13%(3/24) | Preparations in absolute FPD category > 500 ms [1, 5]: 17%(4/24) | Preparations in absolute FPD category ≤ 450 ms [1, 5]: 50%(12/24) | Preparations in absolute FPD category > 450 ms [1, 6]: 17%(1/6) | Preparations in absolute FPD category > 480 ms [1, 6]: 17%(1/6) | Preparations in absolute FPD category > 500 ms [1, 6]: 50% (3/6) | Preparations in absolute FPD category ≤ 450 ms [1, 6]: 17%(1/6) | Preparations in absolute FPD category > 450 ms [1, 7]: 17%(1/6) | Preparations in absolute FPD category > 480 ms [1, 7]: 17%(1/6) | Preparations in absolute FPD category > 500 ms [1, 7]: 0% (0/6) | Preparations in absolute FPD category ≤ 450 ms [1, 7]: 67%(4/6) | Preparations in absolute FPD category > 450 ms [1, 8]: 17%(1/6) | Preparations in absolute FPD category > 480 ms [1, 8]: 17%(1/6) | Preparations in absolute FPD category > 500 ms [1, 8]: 17%(1/6) | Preparations in absolute FPD category ≤ 450 ms [1, 8]: 50% (3/6) | Preparations in absolute FPD category > 450 ms [1, 9]: 33%(2/6) | Preparations in absolute FPD category > 480 ms [1, 9]: 0% (0/6) | Preparations in absolute FPD category > 500 ms [1, 9]: 0% (0/6) | Preparations in absolute FPD category ≤ 450 ms [1, 9]: 67%(4/6) | Preparations in absolute FPD category > 450 ms [1, 10]: 38%(9/24) | Preparations in absolute FPD category > 480 ms [1, 10]: 17%(4/24) | Preparations in absolute FPD category > 500 ms [1, 10]: 29%(7/24) | Preparations in absolute FPD category ≤ 450 ms [1, 10]: 17% (4/24) | Preparations in absolute FPD category > 500 ms [1, 11]: 29% | Preparations with EAD/TA [1, 11]: no EAD/TAs were observed | Preparations in absolute FPD category > 450 ms [1, 12]: 0% (0/6) | Preparations in absolute FPD category > 480 ms [1, 12]: 50% (3/6) | Preparations in absolute FPD category > 500 ms [1, 12]: 50% (3/6) | Preparations in absolute FPD category ≤ 450 ms [1, 12]: 0% (0/6) | Preparations in absolute FPD category > 450 ms [1, 13]: 33%(2/6) | Preparations in absolute FPD category > 480 ms [1, 13]: 0% (0/6) | Preparations in absolute FPD category > 500 ms [1, 13]: 17%(1/6) | Preparations in absolute FPD category ≤ 450 ms [1, 13]: 50% (3/6) | Preparations in absolute FPD category > 450 ms [1, 14]: 50% (3/6) | Preparations in absolute FPD category > 480 ms [1, 14]: 0% (0/6) | Preparations in absolute FPD category > 500 ms [1, 14]: 33%(2/6) | Preparations in absolute FPD category ≤ 450 ms [1, 14]: 17%(1/6) | Preparations in absolute FPD category > 450 ms [1, 15]: 67%(4/6) | Preparations in absolute FPD category > 480 ms [1, 15]: 17%(1/6) | Preparations in absolute FPD category > 500 ms [1, 15]: 17%(1/6) | Preparations in absolute FPD category ≤ 450 ms [1, 15]: 0% (0/6) | Preparations in absolute FPD category > 450 ms [1, 16]: 4% (1/24) | Preparations in absolute FPD category > 480 ms [1, 16]: 13%(3/24) | Preparations in absolute FPD category > 500 ms [1, 16]: 71%(17/24) | Preparations in absolute FPD category ≤ 450 ms [1, 16]: 8% (2/24) | Preparations with EAD/TA [1, 16]: 4%(1/24) | Preparations in absolute FPD category > 500 ms ([1]; cisapride 30 nM, all 4 facilities, n=24, listed as cisapride): 71% | Number of preparations that showed EAD/TAs ([1]; cisapride 30 nM, all 4 facilities, of 24): 1 preparation | Preparations in absolute FPD category > 450 ms [1, 17]: 0% (0/6) | Preparations in absolute FPD category > 480 ms [1, 17]: 0% (0/6) | Preparations in absolute FPD category > 500 ms [1, 17]: 83%(5/6) | Preparations in absolute FPD category ≤ 450 ms [1, 17]: 0% (0/6) | Preparations with EAD/TA [1, 17]: 17%(1/6) | Preparations in absolute FPD category > 450 ms [1, 18]: 17%(1/6) | Preparations in absolute FPD category > 480 ms [1, 18]: 0% (0/6) | Preparations in absolute FPD category > 500 ms [1, 18]: 50% (3/6) | Preparations in absolute FPD category ≤ 450 ms [1, 18]: 33%(2/6) | Preparations in absolute FPD category > 450 ms [1, 19]: 0% (0/6) | Preparations in absolute FPD category > 480 ms [1, 19]: 33%(2/6) | Preparations in absolute FPD category > 500 ms [1, 19]: 67%(4/6) | Preparations in absolute FPD category ≤ 450 ms [1, 19]: 0% (0/6) | Preparations in absolute FPD category > 450 ms [1, 20]: 0% (0/6) | Preparations in absolute FPD category > 480 ms [1, 20]: 17%(1/6) | Preparations in absolute FPD category > 500 ms [1, 20]: 83%(5/6) | Preparations in absolute FPD category ≤ 450 ms [1, 20]: 0% (0/6) | Preparations in absolute FPD category > 450 ms [1, 21]: 0% (0/24) | Preparations in absolute FPD category > 480 ms [1, 21]: 0% (0/24) | Preparations in absolute FPD category > 500 ms [1, 21]: 8%(2/24) | Preparations in absolute FPD category ≤ 450 ms [1, 21]: 0% (0/24) | Preparations with EAD/TA [1, 21]: 92%(22/24) | Preparations with EAD/TA ([1]; cisapride 100 nM, all 4 facilities, n=24, listed as cisapride): 92% | Preparations with EAD/TA ([1]; cisapride 100 nM, facility A, n=6): 100%(6/6) | Preparations with EAD/TA ([1]; cisapride 100 nM, facility B, n=6): 100%(6/6) | Preparations with EAD/TA ([1]; cisapride 100 nM, facility C, n=6): 100%(6/6) | Preparations in absolute FPD category > 450 ms [1, 22]: 0% (0/6) | Preparations in absolute FPD category > 480 ms [1, 22]: 0% (0/6) | Preparations in absolute FPD category > 500 ms [1, 22]: 33%(2/6) | Preparations in absolute FPD category ≤ 450 ms [1, 22]: 0% (0/6) | Preparations with EAD/TA [1, 22]: 67%(4/6) | Preparations with EAD/TA ([1]; cisapride 300 nM, all 4 facilities, n=24): 100%(24/24) | Preparations with EAD/TA ([1]; cisapride 300 nM, facility D, n=6): 100%(6/6)
SMILES: COc1cc(N)c(Cl)cc1C(=O)NC1CCN(CCCOc2ccc(F)cc2)CC1OC (stereo not drawn) [Cisapride, cisapride]
Delta FPDcF ([1]; categorical analysis, Fridericia correction, S5 Table): increased in a concentration-dependent manner | Delta FPD ([1]; categorical analysis, S4 Table): increased in a concentration-dependent manner | Slope factor of FPD-ISI regression, % change ([1]; cisapride 3 nM): 0.6124 | Slope factor of FPD-ISI regression, % change ([1]; cisapride 30 nM): 1.2274 | Slope factor of FPD-ISI regression, absolute FPD (ms) ([1]; cisapride 30 nM (sham 0.1204)): 0.1644 | Effect on FPD [1]: prolonged FPD in a concentration-dependent manner | Use (rate) dependence of FPD prolongation [1]: induced FPD prolongation in a reverse use-dependent manner

SMILES: Cc1cccc(CCN2CCC(C(=O)c3ccc(NS(C)(=O)=O)cc3)CC2)n1 [E-4031]
Slope factor of FPD-ISI regression, % change ([1]; E-4031 1 nM): 0.9347 | Slope factor of FPD-ISI regression, % change ([1]; E-4031 10 nM): 1.8977 | Slope factor of FPD-ISI regression, absolute FPD (ms) ([1]; E-4031 10 nM (sham 0.1653)): 0.3328 | Use (rate) dependence of FPD prolongation [1]: induced FPD prolongation in a reverse use-dependent manner
